Measurements published in patent US9492471B2, “Methods of treating a disease or disorder associated with Bruton'S Tyrosine Kinase” (Celgene Avilomics Research, Inc., priority 2013, dated 2016).
Where two headings read alike, the source gives them in different places.

How the values were obtained:
Assay in all cases: HotSpot kinase profiling
Assay type in all cases: biochemical
[1] = target: T1, TAK1 (Homo sapiens, UniProt O43318)
T1 construct: purchased Reaction Biology Corp
T1 sequence (O43318 1-303 limits assumed): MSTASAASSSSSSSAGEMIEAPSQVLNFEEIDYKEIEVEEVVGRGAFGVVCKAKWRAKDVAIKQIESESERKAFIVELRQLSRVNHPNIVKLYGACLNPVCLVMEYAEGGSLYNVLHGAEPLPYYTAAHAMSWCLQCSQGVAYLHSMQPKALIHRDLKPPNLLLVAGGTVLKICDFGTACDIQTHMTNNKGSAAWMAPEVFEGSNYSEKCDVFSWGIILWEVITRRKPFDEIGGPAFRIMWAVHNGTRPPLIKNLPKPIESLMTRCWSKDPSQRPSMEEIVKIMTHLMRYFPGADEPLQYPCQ
How it was run: (§1)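 Radiometric kinase assay with P81 filter capture; each kinase was added to fresh substrate plus cofactors in reaction buffer and incubated 2 h at room temperature. Unreacted phosphate was washed off with 0.1% phosphoric acid before detection; percent inhibition is relative to DMSO control, averaged over replicates.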

[2] = target: T2, GLK/MAP4K3 (Homo sapiens, UniProt Q8IVH8)
T2 construct: purchased Reaction Biology Corp
T2 sequence (Q8IVH8 1-894): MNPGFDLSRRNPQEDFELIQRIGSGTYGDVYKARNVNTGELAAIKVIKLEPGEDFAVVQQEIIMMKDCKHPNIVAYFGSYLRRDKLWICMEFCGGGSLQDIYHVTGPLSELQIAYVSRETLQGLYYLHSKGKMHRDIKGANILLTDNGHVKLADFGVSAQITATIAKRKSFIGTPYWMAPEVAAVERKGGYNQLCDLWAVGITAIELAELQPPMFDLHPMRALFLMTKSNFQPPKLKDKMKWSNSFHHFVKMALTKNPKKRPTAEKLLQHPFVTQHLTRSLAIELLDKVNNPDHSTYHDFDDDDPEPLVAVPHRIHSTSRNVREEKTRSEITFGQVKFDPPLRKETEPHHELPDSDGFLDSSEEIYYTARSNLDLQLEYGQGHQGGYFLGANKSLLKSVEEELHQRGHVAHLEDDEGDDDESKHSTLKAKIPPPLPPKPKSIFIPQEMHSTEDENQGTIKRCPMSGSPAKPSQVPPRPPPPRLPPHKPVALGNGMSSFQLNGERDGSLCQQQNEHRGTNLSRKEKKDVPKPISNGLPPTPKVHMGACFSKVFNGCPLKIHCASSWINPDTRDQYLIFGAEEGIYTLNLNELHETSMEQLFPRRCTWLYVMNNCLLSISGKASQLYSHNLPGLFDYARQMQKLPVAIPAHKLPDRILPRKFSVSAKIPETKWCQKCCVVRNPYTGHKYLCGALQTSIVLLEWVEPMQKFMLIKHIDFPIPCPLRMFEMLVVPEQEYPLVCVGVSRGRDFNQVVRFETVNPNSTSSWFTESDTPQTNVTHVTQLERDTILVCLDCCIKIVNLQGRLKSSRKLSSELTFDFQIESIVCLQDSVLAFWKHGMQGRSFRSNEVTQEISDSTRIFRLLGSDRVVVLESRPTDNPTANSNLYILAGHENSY
How it was run: as §1

[3] = target: T3, CLK3 (Homo sapiens, UniProt P49761)
T3 construct: purchased Reaction Biology Corp
How it was run: as §1

[4] = target: T4, CDK6/cyclin D1 (Homo sapiens, UniProt Q00534)
T4 construct: purchased Reaction Biology Corp
How it was run: as §1

[5] = target: T5, CK1g2 (Homo sapiens, UniProt P78368)
T5 construct: purchased Reaction Biology Corp
How it was run: as §1

[6] = target: T6, CAMK2d (Homo sapiens, UniProt Q13557)
T6 construct: purchased Reaction Biology Corp
How it was run: as §1

[7] = read-out: % Enzyme Activity (relative to DMSO controls) Run 1
[8] = read-out: % Enzyme Activity (relative to DMSO controls) Run 2

T4 sequence (Q00534 whole entry): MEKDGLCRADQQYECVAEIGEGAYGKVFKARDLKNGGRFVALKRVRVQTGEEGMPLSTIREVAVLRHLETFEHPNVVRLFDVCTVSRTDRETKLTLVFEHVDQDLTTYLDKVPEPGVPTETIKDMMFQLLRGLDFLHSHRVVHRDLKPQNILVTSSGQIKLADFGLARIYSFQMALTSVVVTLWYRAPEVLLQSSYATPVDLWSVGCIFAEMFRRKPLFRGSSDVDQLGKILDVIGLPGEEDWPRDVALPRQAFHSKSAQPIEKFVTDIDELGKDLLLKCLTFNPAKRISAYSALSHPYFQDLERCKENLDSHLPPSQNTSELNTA
T4 sequence (P24385 whole entry partner): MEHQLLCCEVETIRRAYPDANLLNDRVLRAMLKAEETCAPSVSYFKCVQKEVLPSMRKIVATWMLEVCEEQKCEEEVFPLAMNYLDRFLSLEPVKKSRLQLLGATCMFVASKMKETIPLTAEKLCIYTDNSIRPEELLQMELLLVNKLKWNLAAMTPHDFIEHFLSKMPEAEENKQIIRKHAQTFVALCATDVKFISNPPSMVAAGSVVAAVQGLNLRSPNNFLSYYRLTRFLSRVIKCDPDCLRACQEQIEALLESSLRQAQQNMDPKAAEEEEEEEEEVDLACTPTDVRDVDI
T6 sequence (Q13557 whole entry): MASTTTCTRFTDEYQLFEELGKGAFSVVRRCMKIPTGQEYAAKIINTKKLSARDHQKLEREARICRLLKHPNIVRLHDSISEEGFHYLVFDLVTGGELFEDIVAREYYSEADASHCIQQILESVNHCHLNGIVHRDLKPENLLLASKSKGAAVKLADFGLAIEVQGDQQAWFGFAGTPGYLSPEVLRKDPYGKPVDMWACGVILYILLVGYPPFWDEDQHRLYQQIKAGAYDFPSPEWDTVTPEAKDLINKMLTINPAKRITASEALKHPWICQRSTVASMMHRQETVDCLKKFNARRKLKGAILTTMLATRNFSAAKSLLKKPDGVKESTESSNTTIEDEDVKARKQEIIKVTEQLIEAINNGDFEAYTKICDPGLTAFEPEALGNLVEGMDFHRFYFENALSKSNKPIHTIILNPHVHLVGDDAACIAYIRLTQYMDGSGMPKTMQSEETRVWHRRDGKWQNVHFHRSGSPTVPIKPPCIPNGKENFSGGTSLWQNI
T5 sequence (P78368 whole entry): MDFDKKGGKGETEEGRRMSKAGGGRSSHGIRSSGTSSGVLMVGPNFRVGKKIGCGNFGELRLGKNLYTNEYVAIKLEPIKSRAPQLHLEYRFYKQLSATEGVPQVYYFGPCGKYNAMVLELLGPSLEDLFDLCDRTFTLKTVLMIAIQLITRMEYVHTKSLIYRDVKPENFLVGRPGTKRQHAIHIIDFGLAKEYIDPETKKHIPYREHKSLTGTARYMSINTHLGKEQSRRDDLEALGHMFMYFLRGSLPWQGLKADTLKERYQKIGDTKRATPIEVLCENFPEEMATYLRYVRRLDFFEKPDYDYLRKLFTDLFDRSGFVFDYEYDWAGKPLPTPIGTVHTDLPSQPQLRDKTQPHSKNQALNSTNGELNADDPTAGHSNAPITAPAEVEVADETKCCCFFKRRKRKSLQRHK
T3 sequence (P49761 whole entry): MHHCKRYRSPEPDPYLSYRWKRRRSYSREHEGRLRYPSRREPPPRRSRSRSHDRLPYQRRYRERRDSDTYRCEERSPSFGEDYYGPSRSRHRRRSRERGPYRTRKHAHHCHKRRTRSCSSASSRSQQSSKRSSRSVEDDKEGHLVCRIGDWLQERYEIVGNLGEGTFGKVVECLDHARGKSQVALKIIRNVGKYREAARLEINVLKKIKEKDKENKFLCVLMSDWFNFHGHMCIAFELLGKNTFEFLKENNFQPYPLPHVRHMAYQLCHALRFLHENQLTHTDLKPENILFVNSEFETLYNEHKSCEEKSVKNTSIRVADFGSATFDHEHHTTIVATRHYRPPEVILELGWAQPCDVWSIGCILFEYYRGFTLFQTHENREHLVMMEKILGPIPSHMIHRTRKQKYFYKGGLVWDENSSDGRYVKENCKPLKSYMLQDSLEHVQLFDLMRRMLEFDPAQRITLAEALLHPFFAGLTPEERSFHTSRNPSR

C=CC(=O)Nc1cccc(Nc2nc(Nc3ccc(OCCOC)c(F)c3)ncc2F)c1 [Compound 2] was tested, and the inhibition at 3 µM [1] was 27.3%, the remaining activity at 3 µM [1, 7] was 73.4% and the remaining activity at 3 µM [1, 8] was 72%. The inhibition at 3 µM [2] was -5.08%, the remaining activity at 3 µM [2, 7] was 102% and the remaining activity at 3 µM [2, 8] was 108%. It also gave an inhibition at 3 µM [3] of 6.9%, a remaining activity at 3 µM [3, 7] of 90.4% and a remaining activity at 3 µM [3, 8] of 95.8%. It also gave an inhibition at 3 µM [4] of -0.92%, a remaining activity at 3 µM [4, 7] of 101% and a remaining activity at 3 µM [4, 8] of 100%. It also gave an inhibition at 3 µM [5] of 12.6%, a remaining activity at 3 µM [5, 7] of 89.1% and a remaining activity at 3 µM [5, 8] of 85.7%. The inhibition at 3 µM [6] was -23.3%, the remaining activity at 3 µM [6, 7] was 124% and the remaining activity at 3 µM [6, 8] was 123%.
